Drawing on US10065941B2, “Aminotriazine derivative and pharmaceutical composition comprising the same” (Shionogi & Co., Ltd., priority 2013, dated 2018), this text covers IC50 for 41 molecules.

This assay deals with human P2X3 receptor (Homo sapiens (Human), UniProt P56373). The assay is described as follows: Evaluation of human P2X3 receptor inhibitory activity (Test Example 1). The format is cell-based. Conditions: C6BU-1 cell transfected with human P2X3 receptor gene, FLIPR 384. A digest of the protocol: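 FLIPR calcium read-out: signal taken as peak fluorescence after ATP addition divided by starting fluorescence, and IC50 calculated from it. Compound added 5 min before 150 nM ATP solution (pre-dispense stock) to Fluo-3-AM-loaded C6BU-1 cells stably transfected with human P2X3; HEPES buffer pH 7.5 with probenecid.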
Sequence of human P2X3 receptor (P56373 whole entry): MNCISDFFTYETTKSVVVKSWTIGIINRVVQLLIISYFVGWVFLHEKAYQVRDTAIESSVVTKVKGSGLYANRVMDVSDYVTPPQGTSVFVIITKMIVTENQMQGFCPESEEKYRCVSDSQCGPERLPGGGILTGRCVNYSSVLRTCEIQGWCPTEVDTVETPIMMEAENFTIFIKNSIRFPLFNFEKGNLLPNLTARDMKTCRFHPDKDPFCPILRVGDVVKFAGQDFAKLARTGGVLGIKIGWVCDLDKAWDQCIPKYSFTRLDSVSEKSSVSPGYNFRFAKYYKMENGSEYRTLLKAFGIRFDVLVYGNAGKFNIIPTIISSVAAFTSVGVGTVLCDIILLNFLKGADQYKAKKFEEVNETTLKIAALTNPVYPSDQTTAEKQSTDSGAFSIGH

As to `COC(=O)[C@@H](C)Cn1c(=O)[nH]/c(=N\c2ccc(Oc3ccccn3)c(F)c2)n(Cc2ccc(Cl)cc2)c1=O` [Compound I-205], it took 12 nM to reach half-maximal inhibition (IC50). This counts as double-digit nanomolar.

`COC(=O)[C@@H](C)Cn1c(=O)[nH]/c(=N\c2ccc(Oc3cccc(Cl)n3)cc2)n(Cc2ccc(Cl)cc2)c1=O` [Compound I-011]: inhibition was half-maximal at 18 nM (IC50).

Molecule `COc1cc(Oc2ccc(/N=c3\[nH]c(=O)n(C[C@H](C)C(=O)O)c(=O)n3Cc3ccc(Cl)cc3)cc2)cc(F)n1` [Compound R-058] showed an IC50 of 4 nM.

The molecule `CCn1c(=O)nc(Nc2ccc3nc(C(C)C)oc3c2)n(Cc2ccc(Cl)cc2)c1=O` [Compound R-007] displayed an IC50 of 301 nM.

In turn, `COC(=O)[C@H](C)[C@H](C)n1c(=O)[nH]/c(=N\c2ccc(Oc3cccc(F)n3)cc2)n(Cc2ccc(C)cc2)c1=O` [Compound I-104] returned an IC50 of 5 nM. This IC50 is about 60-fold lower than that of the molecule before.

In turn, `C[C@@H](Cn1c(=O)[nH]/c(=N\c2ccc(Oc3ccc(F)cn3)cc2)n(Cc2ccc(F)cc2F)c1=O)C(=O)O` [Compound I-028] displayed an IC50 of 20 nM. Against the preceding molecule, the IC50 is about 4-fold higher.

The molecule `COC(=O)[C@@H](C)Cn1c(=O)[nH]/c(=N\c2ccc(Oc3noc(C)n3)cc2)n(Cc2ccc(Cl)cc2)c1=O` [Compound R-112] had an IC50 of 17 nM. This IC50 and that of the molecule before are within 1.5-fold of each other.

In the case of `COC(=O)C(C)(C)Cn1c(=O)[nH]/c(=N\c2ccc(Oc3cc(Cl)ccn3)cc2)n(Cc2ccc(Cl)cc2)c1=O` [Compound I-081], the IC50 stood at 38 nM.

As for `COC(=O)[C@@H](C)Cn1c(=O)[nH]/c(=N\c2ccc(Oc3ccc(F)cn3)cc2)n(CC2CCC3(CC2)CC3)c1=O` [Compound I-237], inhibition was half-maximal at 14 nM (IC50).

In turn, `Cc1ccc(Cn2c(=O)n(C[C@H](C)C(=O)O)c(=O)[nH]/c2=N\c2ccc(Oc3ncc(C)s3)cc2)cc1` [Compound R-218] came in with a 50% inhibitory concentration (IC50) of 6 nM.

`COC(=O)C(C)(C)Cn1c(=O)[nH]/c(=N\c2ccc(Oc3cnc(C(F)(F)F)cn3)cc2)n(Cc2ccc(Cl)cc2)c1=O` [Compound R-036] returned an IC50 of 11 nM.

The molecule `COc1cccnc1Oc1ccc(/N=c2\[nH]c(=O)n(CC(C)(C)C(=O)O)c(=O)n2Cc2ccc(Cl)cc2)cc1` [Compound I-164] had an IC50 of 29 nM.

The molecule `C[C@@H](Cn1c(=O)[nH]/c(=N\c2ccc(Oc3ccc(CF)cn3)cc2)n(Cc2ccc(Cl)cc2)c1=O)C(=O)O` [Compound I-232] came in with an IC50 of 5 nM.

Molecule `COc1cc(Oc2ccc(/N=c3\[nH]c(=O)n(C[C@H](C)C(=O)O)c(=O)n3Cc3ccc(Cl)cc3)cc2)ncn1` [Compound R-050] yielded an IC50 of 14 nM. Against the preceding molecule, the IC50 is about 2.8-fold higher.

In turn, `CCn1c(=O)[nH]/c(=N\c2ccc(O[C@H]3C[C@@H](C(=O)O)C3)cc2)n(Cc2ccc(Cl)cc2)c1=O` [Compound R-063] returned an IC50 of 456 nM.

`Cc1ccc(Oc2ccc(/N=c3\[nH]c(=O)n(C[C@H](C)C(=O)O)c(=O)n3Cc3ccc(Cl)cc3)cc2F)nn1` [Compound R-180] yielded an IC50 of 7 nM.

On to `COc1cncc(Oc2ccc(/N=c3\[nH]c(=O)n(C[C@H](C)C(=O)O)c(=O)n3Cc3ccc(Cl)cc3)cc2)c1` [Compound R-201], for which it took 8 nM to reach half-maximal inhibition (IC50).

Molecule `COC(=O)[C@@H](C)Cn1c(=O)[nH]/c(=N\c2ccc(Oc3cccc(F)n3)cc2)n(CC2CCC3(CC2)CC3)c1=O` [Compound I-236] gave an IC50 of 16 nM.

Consider `C[C@@H](Cn1c(=O)[nH]/c(=N\c2ccc(Oc3ccccn3)c(Cl)c2)n(Cc2ccc(Cl)cc2)c1=O)C(=O)O` [Compound I-243], for which the IC50 stood at 7 nM.

Regarding `COC(=O)[C@@H](C)Cn1c(=O)[nH]/c(=N\c2ccc(Oc3ccccn3)c(C)c2)n(Cc2ccc(Cl)cc2)c1=O` [Compound I-223], the IC50 amounted to 11 nM. This IC50 lies about 1.6-fold higher than the previous one.

Regarding `C[C@@H](Cn1c(=O)[nH]/c(=N\c2ccc(Oc3cccc(CO)n3)cc2)n(Cc2ccc(Cl)cc2)c1=O)C(=O)O` [Compound I-257], it took 16 nM to reach half-maximal inhibition (IC50).

As for `CC(C)(Cn1c(=O)[nH]/c(=N\c2ccc(Oc3cccnn3)cc2)n(Cc2ccc(Cl)cc2)c1=O)C(=O)O` [Compound R-151], the half-maximal inhibitory concentration (IC50) is 11 nM. The IC50 values of the last two molecules are within 1.5-fold of each other.

With `O=c1[nH]/c(=N\c2ccc(Oc3ccccn3)cc2)n(Cc2ccc(Cl)cc2)c(=O)n1[C@H]1C[C@H](C(=O)O)C1` [Compound I-174], the half-inhibitory concentration (IC50) was determined as 6 nM.

For `O=C(Cn1c(=O)[nH]/c(=N\c2ccc(Oc3ccccn3)cc2)n(Cc2ccc(Cl)cc2)c1=O)NCC(F)(F)F` [Compound R-243], the IC50 came to 4 nM.

The molecule `COC(=O)[C@@H](C)Cn1c(=O)[nH]/c(=N\c2ccc(N3CCCCC3)c(C)c2)n(Cc2ccc(Cl)cc2)c1=O` [Compound R-138] gave an IC50 of 78 nM. Compared with the last molecule, the IC50 is about 20-fold higher.

For `O=C(O)C[C@H](O)Cn1c(=O)[nH]/c(=N\c2ccc(Oc3ccc(F)cn3)cc2)n(Cc2ccc(Cl)cc2)c1=O` [Compound I-090], the IC50 was 72 nM. The IC50 values of the last two molecules are within 1.5-fold of each other.

`Cc1ccc(Cn2c(=O)n([C@H]3C[C@H](C(=O)O)C3)c(=O)[nH]/c2=N\c2ccc(Oc3ccccn3)cc2)cc1` [Compound I-184] had a 50% inhibitory concentration (IC50) of 6 nM.

Molecule `O=C(O)Cn1c(=O)[nH]/c(=N\c2ccc(Oc3ccccn3)cc2)n(Cc2ccc(Cl)cc2)c1=O` [Compound R-239, 1-(4-chlorobenzyl)-3-(hydroxylcarbonylmethyl)-6-[4-(2-pyridyloxy)phenylimino]-1,3,5-triazinane-2,4-dione] yielded an IC50 of 399 nM.

`O=c1[nH]c(=O)n(Cc2ccc(Cl)cc2)/c(=N/c2ccc(Oc3ccc(F)cn3)cc2)[nH]1` [Compound R-170] had an IC50 of 193 nM. Against the preceding molecule, the IC50 is about 2.1-fold lower.

With `C[C@@H](Cn1c(=O)[nH]/c(=N\c2ccc(Oc3nccnc3Cl)cc2)n(Cc2ccc(Cl)cc2)c1=O)C(=O)O` [Compound R-211], the IC50 worked out at 7 nM. This IC50 is about 28-fold lower than that of the molecule before.

The molecule `Cc1ccc(Cn2c(=O)n(C[C@H](C)C(=O)O)c(=O)[nH]/c2=N\c2ccc(Oc3ccc(C)cn3)cc2)cc1` [Compound I-112] had an IC50 of 4 nM.

In turn, `O=c1[nH]/c(=N\c2ccc(Oc3ccccn3)cc2)n(Cc2ccc(Cl)cc2)c(=O)n1C[C@@H](O)CO` [Compound R-250] came in with an IC50 of 9 nM.

Turning to `CCn1c(=O)[nH]/c(=N\c2ccc(-c3ccc(C#N)cn3)cc2)n(Cc2ccc(Cl)cc2)c1=O` [Compound R-005], the concentration for half-maximal inhibition (IC50) was found to be 608 nM.

For `CCn1c(=O)[nH]/c(=N\c2ccc(Oc3ccc(Cl)nc3C(=O)O)cc2)n(Cc2ccc(Cl)cc2)c1=O` [Compound R-169], half-maximal inhibition (IC50) was put at 304 nM.

Regarding `COC(=O)[C@@H](C)Cn1c(=O)[nH]/c(=N\c2ccc(Oc3ncccc3OC)cc2)n(Cc2ccc(Cl)cc2)c1=O` [Compound I-153], 13 nM corresponded to half-maximal inhibition (IC50).

Turning to `CC1(C)OC[C@H](Cn2c(=O)[nH]/c(=N\c3ccc(Oc4ccccn4)cc3)n(Cc3ccc(Cl)cc3)c2=O)O1` [Compound R-234], the IC50 was 3 nM.

As to `COc1nc(=O)n(Cc2ccc(Cl)cc2)/c(=N/c2ccc(Oc3cccc(C#N)n3)cc2)[nH]1` [Compound R-232], the IC50 stood at 61 nM.

`Cc1cnc(Oc2ccc(/N=c3\[nH]c(=O)n(C[C@H](C)C(=O)O)c(=O)n3Cc3ccc(Cl)cc3)cc2)s1` [Compound R-133] came in with an IC50 of 6 nM.

For the molecule `COC(=O)[C@@H](C)Cn1c(=O)[nH]/c(=N\c2ccc(Oc3ncccn3)cc2)n(Cc2ccc(Cl)cc2)c1=O` [Compound R-059], inhibition was half-maximal at 5 nM (IC50).

Turning to `COC(=O)C(C)(C)Cn1c(=O)[nH]/c(=N\c2ccc(Oc3ccc(C)cn3)cc2)n(Cc2ccc(C)cc2)c1=O` [Compound I-110], the concentration for half-maximal inhibition (IC50) amounted to 4 nM.

`CCOC(=O)Cn1c(=O)[nH]/c(=N\c2ccc(Oc3ccc(F)cn3)cc2)n(Cc2ccc(Cl)cc2)c1=O` [Compound R-309] displayed an IC50 of 4 nM. This lies in the single-digit nanomolar range.
